According to the supplement of paper PMC10307832:

Columns and labels:
Test in all cases: relative viability (nuclei count vs DMSO), 5 days (fraction); higher = more cells survive
DM3189 + Bortezomib = compound: C1CN(CCN1)C2=CC=C(C=C2)C3=CN4C(=C(C=N4)C5=CC=NC6=CC=CC=C56)N=C3 [DM3189] + CC(C)C[C@H](NC(=O)[C@H](Cc1ccccc1)NC(=O)c1cnccn1)B(O)O [Bortezomib] (partner 0.002 µM)
Summary of the method: (§1)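 Five library-drug doses in √10 steps were combined with a fixed anchor-drug dose, or a single drug was given alone, by pin tool to lung cancer cell lines in 1536-well plates the day after seeding. Nuclei were stained and counted after 5 days. Relative viability is the nuclei count in treated wells over that in vehicle wells, taken as the median of duplicate plates.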

DM3189 + Lapatinib = compound: C1CN(CCN1)C2=CC=C(C=C2)C3=CN4C(=C(C=N4)C5=CC=NC6=CC=CC=C56)N=C3 [DM3189] + CS(=O)(=O)CCNCc1ccc(-c2ccc3ncnc(Nc4ccc(OCc5cccc(F)c5)c(Cl)c4)c3c2)o1 [Lapatinib] (partner 2 µM)
Summary of the method: as §1

DM3189 + Navitoclax = compound: C1CN(CCN1)C2=CC=C(C=C2)C3=CN4C(=C(C=N4)C5=CC=NC6=CC=CC=C56)N=C3 [DM3189] + CC1(C)CCC(c2ccc(Cl)cc2)=C(CN2CCN(c3ccc(C(=O)NS(=O)(=O)c4ccc(N[C@H](CCN5CCOCC5)CSc5ccccc5)c(S(=O)(=O)C(F)(F)F)c4)cc3)CC2)C1 [Navitoclax] (partner 0.5 µM)
Summary of the method: as §1

DM3189 + OSI-027 = compound: C1CN(CCN1)C2=CC=C(C=C2)C3=CN4C(=C(C=N4)C5=CC=NC6=CC=CC=C56)N=C3 [DM3189] + COc1cccc2cc(-c3nc([C@H]4CC[C@H](C(=O)O)CC4)n4ncnc(N)c34)[nH]c12 [OSI-027] (partner 0.5 µM)
Summary of the method: as §1

DM3189 + Pictilisib = compound: C1CN(CCN1)C2=CC=C(C=C2)C3=CN4C(=C(C=N4)C5=CC=NC6=CC=CC=C56)N=C3 [DM3189] + CS(=O)(=O)N1CCN(Cc2cc3nc(-c4cccc5[nH]ncc45)nc(N4CCOCC4)c3s2)CC1 [Pictilisib] (partner 1 µM)
Summary of the method: as §1

Row | Cell Line | relative viability (DM3189 + Bortezomib; first compound 0.08 µM) | relative viability (DM3189 + Bortezomib; first compound 0.253 µM) | relative viability (DM3189 + Bortezomib; first compound 0.8 µM) | relative viability (DM3189 + Bortezomib; first compound 2.53 µM) | relative viability (DM3189 + Lapatinib; first compound 0.08 µM) | relative viability (DM3189 + Lapatinib; first compound 0.253 µM) | relative viability (DM3189 + Lapatinib; first compound 0.8 µM) | relative viability (DM3189 + Lapatinib; first compound 2.53 µM) | relative viability (DM3189 + Navitoclax; first compound 0.08 µM) | relative viability (DM3189 + Navitoclax; first compound 0.253 µM) | relative viability (DM3189 + Navitoclax; first compound 0.8 µM) | relative viability (DM3189 + Navitoclax; first compound 2.53 µM) | relative viability (DM3189 + OSI-027; first compound 0.08 µM) | relative viability (DM3189 + OSI-027; first compound 0.253 µM) | relative viability (DM3189 + OSI-027; first compound 0.8 µM) | relative viability (DM3189 + OSI-027; first compound 2.53 µM) | relative viability (DM3189 + Pictilisib; first compound 0.08 µM) | relative viability (DM3189 + Pictilisib; first compound 0.253 µM) | relative viability (DM3189 + Pictilisib; first compound 0.8 µM) | relative viability (DM3189 + Pictilisib; first compound 2.53 µM)
1 | HCC-827 | 1.12 | 0.958 | 0.985 | 1.06 | 0.179 | 0.161 | 0.16 | 0.192 | 0.958 | 0.942 | 0.887 | 1.02 | 0.886 | 0.812 | 0.842 | 0.822 | 1.19 | 1.06 | 1.02 | 1.15
2 | HCC-78 | 0.486 | 0.571 | 0.403 | 0.571 | 0.981 | 0.656 |  | 0.825 | 0.877 | 0.725 |  | 0.976 | 0.383 | 0.35 | 0.371 | 0.358 | 0.206 | 0.188 |  | 0.224
3 | NCI-H1993 |  | 0.915 | 1.17 | 1.27 |  | 0.533 | 0.722 | 0.746 |  | 0.883 | 0.646 | 0.999 | 0.541 | 0.49 | 0.476 | 0.506 |  | 0.85 | 0.852 | 0.718
4 | NCI-H1975 | 0.454 | 0.371 | 0.297 | 0.353 | 1.15 | 0.952 | 0.725 | 0.764 | 1.16 | 1.08 | 0.858 | 0.821 | 1 | 0.627 | 0.666 | 0.514 | 0.42 | 0.309 | 0.269 | 0.201
5 | COR-L23 | 0.83 | 1.02 | 0.908 | 0.746 | 1.08 | 0.962 | 0.514 | 0.743 | 1.09 | 0.961 | 0.893 | 1 | 0.887 | 0.715 | 0.576 | 0.625 | 0.71 | 0.668 | 0.485 | 0.627
6 | CAL-12T | 1.27 | 0.931 | 0.907 | 0.958 | 0.623 | 0.675 | 0.616 | 0.947 | 1.16 | 1.09 | 1.25 | 1.35 | 0.829 | 0.629 | 0.869 | 1 | 0.43 | 0.321 | 0.575 | 0.544
7 | UMC-11 | 0.863 | 0.635 | 0.769 | 0.397 | 1.2 | 1.04 | 0.868 | 0.751 | 0.287 | 0.322 | 0.295 | 0.265 | 0.531 | 0.461 | 0.395 | 0.51 | 0.836 | 0.795 | 0.764 | 0.702
8 | NCI-H2228 | 1.19 | 1.12 | 0.847 | 0.659 | 1.51 | 1.08 | 0.865 | 0.263 | 0.96 | 0.952 | 1.1 | 1.3 | 0.73 | 0.517 | 0.434 | 0.322 | 0.362 | 0.33 | 0.329 | 0.283
